The record followed here is ChEMBL document CHEMBL4229342, “Synthesis of novel proxyphylline derivatives with dual Anti-Candida albicans and anticancer activity” (Eur J Med Chem, 2018).

≈ marks a conversion by molar mass, not a printed value.

Format in all cases: functional
Assay [1] has as its system Candida albicans. Briefly: Antifungal activity against Candida albicans ATCC 90028 assessed as reduction in cell viability at 1022.5 to 0.06 uM after 48 hrs in presence of ergosterol by XTT assay. The note with it: ATCC 90028, 48 h.
The subject of assay [2] is Candida albicans. As to the kind of experiment: Growth inhibition of Candida albicans ATCC 90028 at 0.625 ug/ml incubated for 18 hrs at 35 degC by broth microdilution method relative to control. The note with it: ATCC 90028, 18 h, read-out: GI.
Assay [3] relates to Candida albicans. As to the kind of experiment: Antifungal activity against Candida albicans ATCC 90028 assessed as reduction in cell viability at 0.1 uM after 48 hrs in presence of ergosterol by XTT assay. A general note: Tetrazolium assays rely on reduction of a dye to a coloured formazan, in cell work by metabolically active cells.
In assay [4] the test system is Candida albicans. As to the kind of experiment: Antifungal activity against Candida albicans ATCC 90028 assessed as reduction in cell viability at 0.3 uM after 48 hrs in absence of ergosterol by XTT assay.
The subject of assay [5] is Candida albicans. Briefly: Antifungal activity against Candida albicans ATCC 90028 assessed as reduction in cell viability after 48 hrs in absence of ergosterol by XTT assay. The note with it: ATCC 90028, 48 h.
The test system of assay [6] is Candida albicans. Briefly: Growth inhibition of Candida albicans ATCC 90028 at 0.625 ug/ml incubated for 48 hrs at 35 degC by broth microdilution method relative to control. The note with it: ATCC 90028, 48 h, read-out: GI. On the technique in general: Broth dilution looks for growth in wells or tubes with falling amounts of substance.

Usually MIC stands for the smallest concentration in the dilution series that meets the test's criterion for growth inhibition. Take `C[C@@H]1[C@H](O)[C@@H](C)/C=C/C=C/C=C/C=C/C=C/C=C/C=C/[C@H](O[C@@H]2O[C@H](C)[C@@H](O)[C@H](N)[C@@H]2O)C[C@@H]2O[C@](O)(C[C@@H](O)C[C@@H](O)[C@H](O)CC[C@@H](O)C[C@@H](O)CC(=O)O[C@H]1C)C[C@H](O)[C@H]2C(=O)O` [AMPHOTERICIN B]: the minimal inhibitory concentration (MIC) with Candida albicans [1] is 0.1 µM; in the assay with Candida albicans [5], 0.3 µM (≈ 0.277 µg/mL). The inhibition of growth at 0.625 µg/mL in the assay on Candida albicans [2] and in the assay with Candida albicans [6] was 100% throughout. The Activity with Candida albicans [3] turned out to be 78.5%; with Candida albicans [4], 95.5%.
